System: human myeloma cell line MM.1S
Assay: SILAC acetylated-lysine peptide profiling, HDAC inhibitor vs DMSO (light/heavy ratio)
Format: cell-based
Description: An embodiment of the invention comprises utilizing the SILAC method in order to quantitate changes in protein expression between two or more populations of cells. The SILAC method is a technique based on mass spectrometry that detects differences in protein abundance among samples using non-radioactive isotopic labeling. The SILAC method is known in the art, and described in detail in Ong et al., “Stable Isotope Labeling by Amino Acids in Cell Culture, SILAC, as a Simple and Accurate Approach to Expression Proteomics”, Molecular & Cellular Proteomics, vol. 1, pp. 376-386 (2002), which is incorporated herein by reference in its entirety.
Briefly, the SILAC method involves growing two populations of cells in cell culture. The first population of cells is grown in growth media containing normal amino acids (“normal media”). The second population of cells is grown in media lacking a standard essential amino acid (such as lysine), but is then supplemented with a non-radioactive, isotopically labeled form of that essential amino acid (such as lysine labeled with ^13C atoms, rather than normal ^12C atoms), which is called “heavy media”. When the two populations of cells are each growing in the medium, they incorporate the amino acids into all of their proteins. The growth of cells maintained in the heavy media is no different from that in normal media. All peptides containing the heavy amino acids are heavier than their normal counterparts. The cells from each of the two populations of cells are lysed. The lysates from each of the two cell populations are then combined. The combined cell lysates are then analyzed by mass spectrometry. Pairs of chemically identical peptides of different stable isotope composition can be differentiated in a mass spectrometer due to their difference in mass. The ratio of peak intensities in the mass spectrum for such peptide pairs reflects the abundance ratio for the two proteins.
This example describes SILAC studies that were performed to compare the effects of three different HDAC inhibitors (Compound A, Compound B, and tubastatin A) to a control on a human multiple myeloma cell line. The HDAC inhibitors were also compared amongst themselves to determine differences in their effects.
A human myeloma cell line MM.1S was grown using either ^12C (light) or ^13C (heavy) lysine containing culture medium. The “heavy” cells were treated with DMSO as the control, and the “light” cells were treated with a single HDAC inhibitor at 37° C. for 6 hours. The heavy and light cells were lysed, and the lysates were mixed in 1:1 ratio and digested with the protease trypsin. The acetylated lysine containing peptides (due to the action of the HDAC inhibitor) in the digested peptide pool were captured by a non-specific anti-acetylated lysine antibody cocktail (the antibodies identify both light and heavy acetylated peptides), and subjected to mass spectrometry analysis in order to identify thousands of individual peptides.
Thousands of peptides were identified in pairs (^12C and ^13C) due to their known mass differences. The amino acid sequence and quantitative ratio (Light/Heavy) of a given peptide in two differentially treated cell lysates were then determined and annotated with their possible protein (gene) sources.
As stated above, three HDAC inhibitors (Compound A, Compound B, and Tubastatin A) were used. Thus, the SILAC method was performed three times, with a different HDAC inhibitor compared to a control each time. Accordingly, there are three pairs of quantitative data in the table below, i.e., Compound A:DMSO, Compound B:DMSO, and Tubastatin A:DMSO. A cut-off of 1.30 fold of change (increase or decrease) was then used to determine “changed” or “+” in the table, and any peptides with a fold of change less than 1.3 fold were determined to be “unchanged” or “0” in the table. Those peptides that were not identified were marked as “NA” in the table. […]

O=C(CCCCCCNC(=O)c1cnc(N(c2ccccc2)c2ccccc2)nc1)NO [Compound A, 2-(diphenylamino)-N-(7-(hydroxyamino)-7-oxoheptyl)pyrimidine-5-carboxamide]
0.53 log 2: L/H ratio of acetylated peptide […](ac)DR (SEQ ID NO: 639, pyruvate dehydrogenase E1 component subunit alpha somatic form mitochondrial isoform 2 precursor [359], PDHA1) | L/H ratio of acetylated peptide GVDPK(ac)FLR (SEQ ID NO: 640, Ribosomal protein L29 [38], RPL29, RPL29P4) | L/H ratio of acetylated peptide LIK(ac)DGLIIR (SEQ ID NO: 641, 60S ribosomal protein L19 [46], RPL19) | L/H ratio of acetylated peptide HLLPK(ac)IR (SEQ ID NO: 642, 6-phosphogluconate dehydrogenase decarboxylating [253], PGD) | L/H ratio of acetylated peptide LGK(ac)PSLVR (SEQ ID NO: 643, TOB3 [280], ATAD3B)
0.55 log 2: L/H ratio of acetylated peptide LAYIAHPK(ac)LGK (SEQ ID NO: 648, Ribosomal protein L29 [103], RPL29, RPL29P4) | L/H ratio of acetylated peptide IFSQETLTK(ac)AQILK (SEQ ID NO: 649, Prenylcysteine oxidase 1 [415], PCYOX1) | L/H ratio of acetylated peptide […](ac)QNK (SEQ ID NO: 650, Dihydrolipoyl dehydrogenase mitochondrial [143], DLD) | L/H ratio of acetylated peptide FYVK(ac)DHR (SEQ ID NO: 651, CDGSH iron-sulfur domain-containing protein 1 [37], CISD1) | L/H ratio of acetylated peptide SPVNTK(ac)SLFK (SEQ ID NO: 652, Isoform 1 of DNA-dependent protein kinase catalytic subunit [1057], PRKDC)
0.54 log 2: L/H ratio of acetylated peptide EQIYK(ac)LAK (SEQ ID NO: 644, 40S ribosomal protein S13 [39], RPS13) | L/H ratio of acetylated peptide VEYFLK(ac)WK (SEQ ID NO: 645, Chromobox protein homolog 3 [50], CBX3) | L/H ratio of acetylated peptide HYK(ac)TDFDK (SEQ ID NO: 646, Isocitrate dehydrogenase [NADP] mitochondrial [275], IDH2) | L/H ratio of acetylated peptide EGYAWAEDK(ac)EHCEEYGR (SEQ ID NO: 647, tRNA-splicing ligase RtcB homolog [190], C22orf28)
0.52 log 2: L/H ratio of acetylated peptide NDEELNK(ac)LLGR (SEQ ID NO: 634, Histone H2A type 1-B/E [96], HIST1H2AE, HIST1H2AB, HIST1H2AD, HIST1H2AG, HIST1H2AK, HIST1H2AL, HIST1H2AM, HIST1H2AJ, HIST1H2AI) | L/H ratio of acetylated peptide ALEAVFGK(ac)YGR (SEQ ID NO: 635, Heterogeneous nuclear ribonucleoprotein G [30], RBMX) | L/H ratio of acetylated peptide TFK(ac)[…] (SEQ ID NO: 636, 60S ribosomal protein L3 [103], SNORD43, RPL3) | L/H ratio of acetylated peptide YK(ac)[…] (SEQ ID NO: 637, Protein disulfide-isomerase [328], P4HB) | L/H ratio of acetylated peptide NAEK(ac)YAEEDRR (SEQ ID NO: 638, Stress-70 protein mitochondrial [567], HSPA9)
1.00: light to heavy ratio (L/H ratio), log 2 scale, acetylated peptide KLQK(ac)AALLK (SEQ ID NO: 806) (Ribosomal protein L14 variant [132], gene RPL14, drug:DMSO)
0.49 log 2: L/H ratio of acetylated peptide EHTALLK(ac)IEGVYAR (SEQ ID NO: 630, 60S ribosomal protein L35a [29], RPL35A) | L/H ratio of acetylated peptide FNDGSDEK(ac)KK (SEQ ID NO: 631, ATP synthase subunit alpha mitochondrial [239], ATP5A1)
0.57 log 2: L/H ratio of acetylated peptide […](ac)EFR (SEQ ID NO: 657, Isoform 1 of Clathrin heavy chain 1 [1264], CLTC) | L/H ratio of acetylated peptide YK(ac)EALEQCR (SEQ ID NO: 658, Isoform 2 of Antigen peptide transporter 2 [356], TAP2) | L/H ratio of acetylated peptide YELTGK(ac)FER (SEQ ID NO: 659, Annexin A6 [81], ANXA6)
0.00: L/H ratio of acetylated peptide LAELK(ac)QECLAR (SEQ ID NO: 94) (SARNP 17], log 2 scale, drug vs DMSO) | L/H ratio of acetylated peptide (ac)ATETVELHK(ac)LK (SEQ ID NO: 93) (SARNP [10], log 2 scale, drug vs DMSO) | L/H ratio of acetylated peptide ANLVFK(ac)EIEK (SEQ ID NO: 95) (SCP2 [438], log 2 scale, drug vs DMSO) | L/H ratio of acetylated peptide EGQNWLEK(ac)K (SEQ ID NO: 96) (SEC11C [147], log 2 scale, drug vs DMSO)
0.51 log 2: L/H ratio of acetylated peptide LTCEEEEEK(ac)IFGR (SEQ ID NO: 633, Isoform Short of Probable global transcription activator SNF2L2 [1302], SMARCA2)
0.00 log 2: light to heavy ratio (L/H ratio) of acetylated peptide […](ac)R (SEQ ID NO: 334) (S1 IF1 type family protein [56], EIF1AXP1, drug:DMSO)
0.50 log 2: L/H ratio of acetylated peptide FSK(ac)[…] (SEQ ID NO: 632, X-ray repair cross-complementing protein 5 [144], XRCC5)
0.56 log 2: L/H ratio of acetylated peptide HIVK(ac)EFK (SEQ ID NO: 653, Stress-70 protein mitochondrial [288], HSPA9) | L/H ratio of acetylated peptide MYKEEGLK(ac)AFYK (SEQ ID NO: 654, Isoform A of Phosphate carrier protein mitochondrial [214], SLC25A3) | L/H ratio of acetylated peptide LDAQVK(ac)ELVLK (SEQ ID NO: 655, Dolichyl-diphospho-oligosaccharide--protein glycosyltransferase subunit 1 precursor [598], RPN1) | L/H ratio of acetylated peptide GYPTLK(ac)[…] (SEQ ID NO: 656, Thioredoxin domain-containing protein 5 [140], TXNDC5, MUTED, MUTED-TXNDC5)

Source: patent US20140357512A1, “HISTONE DEACETYLASE (HDAC) BIOMARKERS IN MULTIPLE MYELOMA” (priority 2013, published 2014)
